A melting point compilation (Tetko et al.; mined from patent text by program, amines drawn as free bases though some values may be those of a salt)

Structure (SMILES) | melting point [°C]
CCC(CC)c1ccc(Cl)c2nc(Nc3ccc(Br)cc3C)n(CCCCO)c12 | 151 to 152
Nc1nc(-c2cc(Cl)nc(Cl)c2)cs1 | 239 to 247
CCOC(=O)C(C)(Sc1cc2ccccc2[nH]1)c1ccccc1 (configuration not stated) | 97 to 99
CC(=O)N[C@@H](CSC(=O)c1ccccc1)C(=O)NCCSC(=O)C(C)C | 137 to 138
COC(=O)c1cccc(Cn2nc(C(N)=O)c3ccccc32)c1 | 166 to 168
Cc1ccc2c(c1)C(C(=O)Nc1c(Br)cccc1Br)c1ccccc1CO2 (configuration not stated) | 184
FC(F)(F)CN1CCC(CNOCc2ccccc2)CC1 | 93.8 to 95.1
COc1ccc2c(c1)CCC(=O)N(C(C)=O)CCCC2=O | 156 to 158
CC1(C)Cc2c(ccc3c2C(c2cccc(-c4ccc(C(=O)O)cc4)c2)=NCC3(C)C)O1 | 286 to 291
COC(=O)c1cc2ccc(Br)cc2s1 | 108 to 110
CC(NC(=O)c1ccc(I)cc1)C(O)c1ccccc1 (configuration not stated) | 209 to 210
OCC1=Cc2cc3ccccc3n2CC1 | 139 to 142
c1cc(OC2CN3CCC2CC3)no1 (configuration not stated) | 80 to 81
COc1ccc(CCOc2ccc(NC(=O)c3cc(F)cc(N4CCOCC4)c3)c3ccccc23)cc1OC | 73 to 75
CCN1CCC(CNC(=O)c2cc(Cl)c(N)[nH]c2=O)CC1 | 136 to 140
COc1cc(C2C3=C(COC3=O)Nc3ccc4cc[nH]c4c32)ccc1F (configuration not stated) | 170 to 172
COCc1cnc2c(NC(=O)c3c(Cl)cccc3Cl)cccc2c1N1CCNC1=O | 210 to 212
Cc1c(Br)c(Br)nn1C(C)C(=O)N(C)C(C)C (configuration not stated) | 95 to 96.5
CON=C(C(=O)OC)c1cc(C)c(C)cc1COc1ccccc1C | 82 to 84
CCCC[C@H]1CC[C@H](C(=O)O)CC1 | 37 to 39
CCCn1c(=O)c2nc(-c3ccc(/C=C/C(=O)O)cc3)[nH]c2n(CC2CCCCC2)c1=O | > 350
N#CC(=NOS(=O)(=O)c1ccc(O)cc1)c1ccccc1 | 148
CCCCCCCCCCOc1ccccc1-c1nc(N)c(N=O)c(=O)[nH]1 | 144 to 146
COc1ccc(C(=O)NCc2ccc(CNC(=O)c3ccc(OC)cc3)cc2)cc1 | 249 to 250
COC(=O)c1cccc(-c2c(C#N)nn(-c3c(Cl)cc(C(F)(F)F)cc3Cl)c2N)c1 | 214 to 216
NC(=O)OC[C@H]1NC(=O)[C@H]1NC(=O)OCc1ccccc1 | 192 to 193

Structure (SMILES) | melting point [°C]
CCOC(=NO)C(=O)C1=Nc2ccccc2C(=O)N(C)C1 | 173 to 174
CC(O)Cn1ccc2ccc(F)c(Cl)c21 (racemic) | 85 to 87
CCC(=NOC)c1ccc(=O)[nH]c1CC | 120 to 125
O=C(c1ccccc1)c1nc2ncccc2o1 | 151 to 153
CC(C)n1c(=O)nc(-c2ccc3ccccc3c2)c2cc3c(cc21)OCO3 | 213 to 215
CC(=O)OCCOCn1cnc2c(=O)[nH]c(N)nc21 | 240 to 241
Cn1nc(-c2cc([N+](=O)[O-])c(Cl)cc2F)c(Cl)c1S(C)=O (configuration not stated) | 151
Cc1cccc(C)c1-n1cnc(NCC(F)(F)F)nc1=O | 212 to 213
OCC1OC(n2cnc3c(N4CCCC4)nc(Cl)nc32)C(O)C1O (configuration not stated) | 229
CCN1c2ncc(CCl)cc2C(=O)N(C)c2ccc(Cl)nc21 | 133 to 134
O=C(Nc1ccc(-n2nc(C(F)(F)F)cc2C(F)(F)F)cc1)C1=CCCC1 | 174 to 175
COC(=O)CC1=C(C)Cc2cc(F)c(F)cc21 | 86 to 90
CN1CN(C2CCCC2)CN(c2nc3c(s2)C(=O)CC(C)(C)C3)C1=O | 181 to 183
CC(C)(C)[Si](C)(C)O[C@H]1CC(=O)O[C@H](CO)C1 | 102
O=C(O)COc1ccc2cc(-c3csc(Cc4c(Cl)cccc4Cl)n3)ccc2c1 | 205 to 207
CC(C)c1ccc(C(=O)Cc2ccccc2C(F)(F)F)c(C(C)C)c1OS(N)(=O)=O | 144 to 149
CN(C(=O)c1cn2cc(-c3ccc(Cl)cc3)ccc2n1)C(Cc1ccc(OCc2ccccc2)cc1)C(=O)O (configuration not stated) | 216
Oc1cccc(-c2ccc3c(-c4cccnc4)coc3c2)c1 | 205 to 207
CCOCCNC(=O)c1cc2c(nc(C)n2C)c2c1CCC1(Cc3ccccc3C1)N2 | 180 to 181
CCN(CCCP(=O)(O)O)S(=O)(=O)C(F)(F)C(F)(F)C(F)(F)C(F)(F)F | 138 to 140
CCCC1(CCC)CC1(CN)C(=O)O (configuration not stated) | 255 to 257
CC(=O)c1ccc2c(c1)[C@@H](N1CCCC1=O)[C@H](O)C(C)(C)O2 (relative stereo) | 218 to 219
Cc1ccc(-c2nc(OC(C)C)c(Br)c(OC(C)C)n2)cc1 | 74 to 75
Cc1ccc2c(c1)Nc1ncccc1NC2=O | 286 to 288
Cn1ncc2[nH]c3cccc(-c4ccc(O)cc4)c3c(=O)c21 | > 300
CCCc1nc2c(N)nc3ccccc3c2n1CCCCCCCCCCCC(=O)NC | 135 to 137

Structure (SMILES) | melting point [°C]
COc1ccc(C=NS(=O)(=O)c2ccc(C)cc2)cc1 | 127
COc1ccc(CCNC(=O)C(F)(F)F)cc1 | 74 to 77
C#CCOc1ccc2c(c1)c(-c1ccc(C(C)C)cc1)nc(=O)n2Cc1cccnc1O | 121 to 123
O=C(O)CCCCCCCCCCCCCCCCCCI | 70 to 71.5
N#Cc1c(N2CCN(C(=O)c3cccs3)CC2)c2ccccc2n(-c2ccccc2)c1=O | 289
O=C(CSc1ccccc1)c1ccc2[nH]c3ncc(Cl)cc3c2c1 | 238 to 239
CNC(=O)Nc1ccc(O)cc1 | 169 to 171
O=C(CCC1CCCCC1)C1=C(O)COC1=O | 75 to 78
O=C(O)CCCCCOc1c(Cl)cc(NC(=O)NC(=O)c2ccccc2Cl)cc1Cl | 171 to 173
CC(N)=CC(=O)NC1CCCC1 | 138 to 139
CCOCc1nc2c(N)nc(C)c(C)c2n1CC(C)(C)O | 190 to 193
CC(C)C[C@@H](NC(=O)c1cnc(N2CCC(N3C(=O)OCc4ccccc43)CC2)c(Cl)c1)C(N)=O | 139 to 142
C[C@]1(CN2CCN(C(=O)N3CC=C(c4ccc(Cl)cc4)CC3)CC2)Cn2cc([N+](=O)[O-])nc2O1 | 161 to 162
O=C(O)CSc1ccc([N+](=O)[O-])cc1C(=O)O | 216 to 217
CC(C)(C)c1ccc(CNC(=O)NCc2ccc(NS(C)(=O)=O)c([N+](=O)[O-])c2)cc1 | 177 to 178
COc1ccc(CNc2ccc(F)c(Cl)c2)cc1OC | 127 to 128
CC(=O)Nc1c(C(=O)c2ccccc2)[nH]c2cc([N+](=O)[O-])ccc12 | 234 to 236
N#CC(N)=C(C#N)N=Cc1cnn(-c2c(F)cc(F)cc2F)n1 | 213 to 215
COC(=O)c1ccc(OC)c(NC(=N)c2ccc(F)cc2Cl)c1 | 120
COc1ccc(-c2nc(CNc3ccccc3)nc3cc(OC)c(OC)cc23)cc1OC | 199 to 200
Cc1cc2c(c(C3=NNC(=O)CC3C)c1)OCC(=O)N2 (configuration not stated) | 252 to 254
CCCCc1cc(NCc2ccc(-c3ccccc3C#N)cc2)n2nccc2n1 | 200 to 202
CCC(=O)NCc1ccc2ccn(C3CCN(CCc4ccccc4F)CC3)c2c1 | 118 to 119
COC(=O)c1c(C(=O)OC)c2sc3ccccc3n2c1-c1ccc(F)cc1 | 186 to 187
Cc1nc(-n2cc(CCc3ccccc3)nn2)sc1C(=O)NCc1cccnc1 | 114 to 116
CCOC(=O)C1CCn2c1cc(C)c2C(=O)c1ccc(SC)n1C (configuration not stated) | 101 to 102

Structure (SMILES) | melting point [°C]
COc1cc2cc(-c3ccccc3F)sc2c(Cl)c1Cl | 143 to 144
CCCNC(=O)[C@H](C)C[C@H](O)[C@H](CC1CCCCC1)NC(=O)OC(C)(C)C | 115 to 116
Cc1c[nH]c2cc(-c3nn(C(C)c4oc5ccccc5c(=O)c4-c4cccc(F)c4)c4ncnc(N)c34)ccc12 (configuration not stated) | 262 to 265
CC(C)(C)OC(=O)N1CCC(n2c(=O)n(CC(F)(F)F)c3cc(F)ccc32)CC1 | 172 to 173
O=P(NP(=S)(Oc1ccccc1)Oc1ccccc1)(Oc1ccccc1)Oc1ccccc1 | 103 to 105
O=C1NC(=O)N2C(c3ccccc3)SC[C@@H]12 (some centres not stated) | 177 to 179
O=C(O)c1cc(-c2ccc3c(c2)CCO3)nn(CC2CC2)c1=O | 160 to 165
CC(=O)Nc1cccc(-c2csc(NC(N)=S)n2)c1C | 228 to 230
Cc1cccc(C(=O)N(C(=O)c2cccc(C)c2)c2nc3ccccc3c(NCc3ccccc3)c2C#N)c1 | 234
CC(C)(C)OC(=O)NCC1(O)CCN(Cc2ccccc2)CC1 | 109 to 112
Cc1oc(-c2ccc(O)cc2)nc1CCOc1ccc(N)cc1 | 184 to 185
OC(CNCc1ccccc1)c1ccc(OCc2ccccc2)c(F)c1 (configuration not stated) | 113 to 114
COc1ccc(C(=O)CC(C)(C)C(=O)O)c2c1OC(C)(C)C2 | 159 to 160
O=C1Nc2ccc(C(O)c3ccc(Cl)cc3)cc2C(c2cccc(Cl)c2)N1 (configuration not stated) | 231
CC(C)Oc1cccc(-n2c(NC(=O)Nc3cccc(C(=O)O)c3)nc3ccccc3c2=O)c1 | 158 to 160
CC(=O)C(O)C1OC(n2cc(Br)c(=O)[nH]c2=O)CC1(O)C(C)=O (configuration not stated) | 116 to 120
CCCCCCCCCCCCCc1cc(C(=O)O)c[nH]1 | 82 to 84
CCNC(=O)c1c([Si](C)(C)C)ccc(C(F)F)c1Cl | 120 to 121
CC(C)(C)c1ccc(C(=O)Nc2cn3nc(NC4CCCCC4)ccc3n2)cc1 | 296 to 297
Cn1cc(C(=O)Nc2cc(Cl)ccc2-c2cccc(Cl)c2)c(C(F)(Cl)Cl)n1 | 145 to 146
COC1(OC)CCC(O)(c2ccc(F)cc2)CC1 | 94 to 99
CCCc1cc(-c2nc(-c3ccc(C)cc3)cs2)ccn1 | 190 to 193
CN(C1CCS(=O)(=O)CC1)S(=O)(=O)c1ccc(Nc2ccnc(Nc3ccc(F)cc3)n2)cc1 | 252
O=C(O)c1ccccc1Nc1c(O)ccc2ccccc12 | 214 to 217
